± gives the expanded uncertainty stated by the source.
Conditions: Liquid

In the case of CCOS(=O)(=O)[O-].CCn1cc[n+](C)c1 [1-ethyl-3-methylimidazolium ethyl sulfate], the mass density (283.15 K, 100 kPa) is reported as 1246.94 ± 0.83 kg/m3, the mass density (283.15 K, 2500 kPa) is reported as 1247.9 ± 0.94 kg/m3 and the mass density (283.15 K, 5000 kPa) is reported as 1248.89 ± 1.1 kg/m3. The mass density (283.15 K, 10000 kPa) was 1250.85 ± 1.4 kg/m3, the mass density (283.15 K, 15000 kPa) was 1252.79 ± 1.7 kg/m3 and the mass density (283.15 K, 20000 kPa) was 1254.73 ± 2 kg/m3. For the same molecule, the mass density (283.15 K, 25000 kPa) was 1256.61 ± 2.3 kg/m3, the mass density (283.15 K, 30000 kPa) was 1258.47 ± 2.6 kg/m3 and the mass density (283.15 K, 35000 kPa) was 1260.31 ± 2.9 kg/m3. The mass density (293.15 K, 100 kPa) was 1239.88 ± 0.81 kg/m3, the mass density (293.15 K, 2500 kPa) was 1240.89 ± 0.92 kg/m3 and the mass density (293.15 K, 5000 kPa) was 1241.91 ± 1.1 kg/m3. It also gave a mass density (293.15 K, 10000 kPa) of 1243.9 ± 1.4 kg/m3, a mass density (293.15 K, 15000 kPa) of 1245.88 ± 1.6 kg/m3 and a mass density (293.15 K, 20000 kPa) of 1247.83 ± 1.9 kg/m3. For the same molecule, the mass density (293.15 K, 25000 kPa) was 1249.76 ± 2.2 kg/m3, the mass density (293.15 K, 30000 kPa) was 1251.66 ± 2.5 kg/m3 and the mass density (293.15 K, 35000 kPa) was 1253.57 ± 2.9 kg/m3. The mass density (298.15 K, 100 kPa) was 1236.35 ± 0.81 kg/m3, the mass density (298.15 K, 2500 kPa) was 1237.35 ± 0.92 kg/m3 and the mass density (298.15 K, 5000 kPa) was 1238.4 ± 1 kg/m3. For the same molecule, the mass density (298.15 K, 10000 kPa) was 1240.44 ± 1.3 kg/m3, the mass density (298.15 K, 15000 kPa) was 1242.46 ± 1.6 kg/m3 and the mass density (298.15 K, 20000 kPa) was 1244.44 ± 1.9 kg/m3. The mass density (298.15 K, 25000 kPa) was 1246.41 ± 2.2 kg/m3, the mass density (298.15 K, 30000 kPa) was 1248.35 ± 2.5 kg/m3 and the mass density (298.15 K, 35000 kPa) was 1250.23 ± 2.8 kg/m3. For the same molecule, the mass density (303.15 K, 100 kPa) was 1232.72 ± 0.8 kg/m3, the mass density (303.15 K, 2500 kPa) was 1233.78 ± 0.91 kg/m3 and the mass density (303.15 K, 5000 kPa) was 1234.83 ± 1 kg/m3. It also gave a mass density (303.15 K, 10000 kPa) of 1237 ± 1.3 kg/m3, a mass density (303.15 K, 15000 kPa) of 1239.02 ± 1.6 kg/m3 and a mass density (303.15 K, 20000 kPa) of 1241.03 ± 1.9 kg/m3. It also gave a mass density (303.15 K, 25000 kPa) of 1243.02 ± 2.2 kg/m3, a mass density (303.15 K, 30000 kPa) of 1244.98 ± 2.5 kg/m3 and a mass density (303.15 K, 35000 kPa) of 1246.84 ± 2.8 kg/m3. It also gave a mass density (313.15 K, 100 kPa) of 1226.06 ± 0.79 kg/m3, a mass density (313.15 K, 2500 kPa) of 1227.11 ± 0.89 kg/m3 and a mass density (313.15 K, 5000 kPa) of 1228.18 ± 1 kg/m3. It also gave a mass density (313.15 K, 10000 kPa) of 1230.3 ± 1.3 kg/m3, a mass density (313.15 K, 15000 kPa) of 1232.38 ± 1.6 kg/m3 and a mass density (313.15 K, 20000 kPa) of 1234.45 ± 1.9 kg/m3. For the same molecule, the mass density (313.15 K, 25000 kPa) was 1236.48 ± 2.1 kg/m3, the mass density (313.15 K, 30000 kPa) was 1238.47 ± 2.4 kg/m3 and the mass density (313.15 K, 35000 kPa) was 1240.45 ± 2.7 kg/m3. For the same molecule, the mass density (323.15 K, 100 kPa) was 1219.19 ± 0.77 kg/m3, the mass density (323.15 K, 2500 kPa) was 1220.23 ± 0.87 kg/m3 and the mass density (323.15 K, 5000 kPa) was 1221.36 ± 0.98 kg/m3. For the same molecule, the mass density (323.15 K, 10000 kPa) was 1223.53 ± 1.2 kg/m3, the mass density (323.15 K, 15000 kPa) was 1225.69 ± 1.5 kg/m3 and the mass density (323.15 K, 20000 kPa) was 1227.8 ± 1.8 kg/m3. It also gave a mass density (323.15 K, 25000 kPa) of 1229.93 ± 2.1 kg/m3, a mass density (323.15 K, 30000 kPa) of 1231.96 ± 2.4 kg/m3 and a mass density (323.15 K, 35000 kPa) of 1233.91 ± 2.7 kg/m3. It also gave a mass density (333.15 K, 100 kPa) of 1212.42 ± 0.76 kg/m3, a mass density (333.15 K, 2500 kPa) of 1213.53 ± 0.86 kg/m3 and a mass density (333.15 K, 5000 kPa) of 1214.66 ± 0.96 kg/m3. For the same molecule, the mass density (333.15 K, 10000 kPa) was 1216.87 ± 1.2 kg/m3, the mass density (333.15 K, 15000 kPa) was 1219.08 ± 1.5 kg/m3 and the mass density (333.15 K, 20000 kPa) was 1221.24 ± 1.8 kg/m3. It also gave a mass density (333.15 K, 25000 kPa) of 1223.33 ± 2 kg/m3, a mass density (333.15 K, 30000 kPa) of 1225.42 ± 2.3 kg/m3 and a mass density (333.15 K, 35000 kPa) of 1227.46 ± 2.6 kg/m3.

— the NIST ThermoML archive (doi:10.1016/j.jct.2007.11.011)
